Experimental data published in US4582824A, “Method for inhibiting activities of platelet activating factor” (Takeda Chemical Industries, Ltd., priority 1983, dated 1986).

Assays:
[1] = system: circulatory shock due to PAF; assay: Inhibitory activity against circulatory shock due to PAF in anesthetized dogs; format: in vivo, mongrel dogs
Description: Male and female mongrel dogs weighing 9 to 13 kg were used. Under pentobarital sodium ([…], i.v.) anesthesia and supportive respiration, a thoracotomy was performed at the left fourth interspace. The origin of the left coronary circumflex and the aortic arch were released, an electromagnetic probe was attached to each, and the coronary blood flow (CoF) and cardiac output (CO) were measured. Moreover, a polyethylene cannula was inserted from the apex of the heart into the left ventricle and the left ventricular pressure (LVP) was measured by means of a pressure transducer. In addition, its first-order differential dp/dt was determined by way of a differential circuit. The mean blood pressure (MBP) was continuously recorded on an ink-writing polygraph through a pressure transducer via a cannula inserted into the right femoral artery and the heart rate (HR) was similarly recorded via a tachometer driven by mean blood pressure pulse waves. PAF and the compound of Production Example 2 were respectively dissolved in physiological saline and administered via a cannula into the left femoral vein. After 1.0 μg/kg of PAF was intravenously administered and the respective parameters recovered to normal, the compound of Production Example 2 (10 mg/kg) was intravenously administered. After 10 minutes, 1.0 μg/kg of PAF was intravenously administered to estimate the anti-PAF activity of the compound of Production Example 2. All values are in percents relative to the values prior to PAF administration.

[2] = system: platelet aggregation; conditions: compared with ADP and TXA2; cited from earlier work
[3] = system: PAF-induced respiratory (airway) stenosis; assay: PAF-inhibiting activity in respiratory stenosis; format: in vivo, guinea pig (Hartley); conditions: for suppression of the airway stenosis response by PAF: 2 minutes before PAF 0.3 μg/kg i.v.
Description: Male and female Hartley strain guinea pigs weighing about 400 g were used. Under urethane anesthesia (1.5 g/kg, i.p.), each animal was immobilized in supine position and one shank of a tracheal cannula (of 4-shank type) was inserted into the airway, with two of the remaining three shanks being connected to a Harvard Apparatus rodent respirator and the remaining one shank to a bronchospasm transducer (Ugo-basile Model 7020). At an air volume of 5 to 7 ml per cycle, an air supply frequency of 70 times/min. and a lung loading pressure of 10 cm H2 O, the volume of overflowing air was recorded through the transducer on a rectigraph (Rectigraph-8S, Sanei Sokki K.K.). After gallamine triethodide (1 mg/kg, i.v.) treatment, […] of histamine 2HCl was intravenously administered to examine the response of the animal. When 0.3 μg/kg of PAF was intravenously administered to control group intravenously pretreated with physiological saline, a miximum airway stenosis was noted after 30 minutes and the amount of stenosis taking a complete stenosis as 100% was 72.8±4.3 (mean±S.D., for 6 cases). The compound of Production Example 2, when intravenously administered 2 minutes before at the dose levels of 0.3 and 1 mg/kg, suppressed the above response by PAF by 49% and 82%, respectively.

[4] = system: respiratory stenosis; conditions: compared with all the known compounds; cited from earlier work
[5] = system: endotoxin-induced death; assay: Preventive effect against endotoxin-induced death in mice; format: in vivo, mouse (ICR-Jcl); conditions: 10 mg/kg i.v. + endotoxin 15 mg/kg i.v.
Description: Male mice of ICR-Jcl strain, aged 5 weeks and with a body weight of about 30 g, were used in groups of 7 individuals. For the control group, 15 mg/kg of endotoxin was suspended in 0.1 ml/10 g of physiological saline and injected into the tail vein. For the compound (IA) treatment group, 10 mg/kg of the compound (IA) and 15 mg/kg of endotoxin were suspended in 0.1 ml/10 g of physiological saline and similarly injected into the tail vein. The mice were examined for death up to 20 hours after the treatment.

[6] = system: PAF-induced platelet aggregation (washed PRP); assay: Activity to inhibit PAF in platelet aggregation (washed PRP); format: cell-based, rabbit; conditions: Oryctolagus cuniculus, test compound 3×10^-5 M, PAF 3×10^-7 M, 37° C., read-out: Inhibition rate
Description: Using an injection syringe containing a 3.15% solution of citric acid (in a ratio of 1 part per 9 parts of blood) as an anticoagulant, the blood was directly collected from a male rabbit. Then, at room temperature, the blood was centrifuged at 1,000 r.p.m. for 10 minutes to harvest a platelet rich plasma (PRP). This PRP was further centrifuged at 1,400 r.p.m. for 15 minutes to give a platelet pellet. The pellet was suspended in Ca^++ -free Tyrode solution (containing 0.25% of gelatin) to give a washed PRP. This washed PRP (250 μl) was stirred at 37° C. for 2 minutes, then 25 μl of a 0.2 to 0.5 mM Ca^++ solution was added, and the mixture was further stirred for 30 seconds. Then, the test compound was added to the above platelet preparation to a level of 3×10^-5 M. After stirring the mixture for 2 minutes, 3×10^-7 M of PAF was added. The degree of platelet aggregation was determined with a platelet aggregometer (Rika Denki). The activity of the test compound was estimated from the inhibition rate as compared with the maximum optical transmission (maximum aggregation) of control PRP by PAF.

[7] = system: endotoxin-induced blood pressure fall; assay: Anti-endotoxin shock activity in rats; format: in vivo, rat (Sprague-Dawley); conditions: 10 mg/kg i.v., 10 minutes before endotoxin 15 mg/kg i.v., mean ± SD
Description: Male Sprague-Dawley rats weighing 500 to 600 g were used under pentobarbital sodium (50 mg/kg, i.v.) anesthesia. A cannula was inserted into the femoral artery and secured in position for measurement of blood pressure and another cannula into the femoral vein for administration of a solution of the drug. The blood pressure was measured via a pressure transducer and recorded on a polygraph. For a control group, a suspension of endotoxin (Lipopolysaccharide W. E. coli 0111: B4, Wako Pure Chemical) in physiological saline was administered into the femoral vein and the maximum hypotensive response occurring 3 to 5 minutes after administration was recorded. On the other hand, for the administration of 3-(N-n-octadecylcarbamoyloxy)-2-methoxypropyl 2-thiazolioethyl phosphate [hereinafter, compound (IA)], the compound (IA) was dissolved in physiological saline and administered into the femoral vein in a dose of 10 mg/kg. Ten (10) minutes after the administration of (IA), endotoxin was similarly administered and the maximum hypotensive response was recorded. The anti-endotoxin shock activity of the test compound was estimated from the difference in blood pressure response between the (IA) treatment group and the non-(IA)treatment group.

[8] = PAF 1.0 μg/kg i.v. alone, 0.5 min
[9] = PAF 1.0 μg/kg i.v. alone, 1 min
[10] = PAF 1.0 μg/kg i.v. alone, 5 min
[11] = PAF 1.0 μg/kg i.v. after pretreatment 10 mg/kg i.v., 0.5 min
[12] = PAF 1.0 μg/kg i.v. after pretreatment 10 mg/kg i.v., 1 min
[13] = PAF 1.0 μg/kg i.v. after pretreatment 10 mg/kg i.v., 5 min

CCCCCCCCCCCCCCCCOCC(COP(=O)([O-])OCC[N+](C)(C)C)OC(C)=O (stereo not shown) [PAF, 1-O-alkyl-2-acetyl-sn-glyceryl-3-phosphorylcholine]
decrease of CO in words ([1]; PAF 1.0 μg/kg i.v.): particularly remarkable | heart rate (HR) change in words ([1]; PAF 1.0 μg/kg i.v.): only a slight decrease | time before the preadministration values were recovered ([1]; PAF 1.0 μg/kg i.v.): 60 min | CO (percent of value prior to PAF) [1, 8]: 93 ± 13% | CoF (percent of value prior to PAF) [1, 8]: 75 ± 3% | DBP (percent of value prior to PAF) [1, 8]: 58 ± 3% | HR (percent of value prior to PAF) [1, 8]: 96 ± 8% | LVP (percent of value prior to PAF) [1, 8]: 81 ± 1% | MBP (percent of value prior to PAF) [1, 8]: 62 ± 4% | SBP (percent of value prior to PAF) [1, 8]: 70 ± 5% | max dp/dt (row head is a drawing; percent of value prior to PAF) [1, 8]: 76 ± 8% | CO (percent of value prior to PAF) [1, 9]: 33 ± 3% | CoF (percent of value prior to PAF) [1, 9]: 77 ± 3% | DBP (percent of value prior to PAF) [1, 9]: 47 ± 3% | HR (percent of value prior to PAF) [1, 9]: 95 ± 8% | LVP (percent of value prior to PAF) [1, 9]: 59 ± 7% | MBP (percent of value prior to PAF) [1, 9]: 49 ± 5% | SBP (percent of value prior to PAF) [1, 9]: 52 ± 5% | max dp/dt (row head is a drawing; percent of value prior to PAF) [1, 9]: 50 ± 3% | CO (percent of value prior to PAF) [1, 10]: 35 ± 7% | CoF (percent of value prior to PAF) [1, 10]: 56 ± 2% | DBP (percent of value prior to PAF) [1, 10]: 67 ± 12% | HR (percent of value prior to PAF) [1, 10]: 89 ± 3% | LVP (percent of value prior to PAF) [1, 10]: 62 ± 6% | MBP (percent of value prior to PAF) [1, 10]: 63 ± 11% | SBP (percent of value prior to PAF) [1, 10]: 59 ± 9% | max dp/dt (row head is a drawing; percent of value prior to PAF) [1, 10]: 54 ± 7% | platelet aggregation activity in words [2]: greater activity at lower concentrations | amount of stenosis taking a complete stenosis as 100% ([3]; PAF 0.3 μg/kg i.v., control group pretreated with saline, mean±S.D., 6 cases): 72.8±4.3% | activity in respiratory stenosis assay in words [4]: highest activity of all the known compounds

CCCCCCCCCCCCCCCCCCNC(=O)OCC(COP(=O)([O-])OCC[n+]1ccsc1)OC (stereo not shown) [Production Example 2, 3-(N-Octadecylcarbamoyloxy)-2-methoxypropyl 2-thiazolioethyl phosphate]
Mortality within 20 hrs. [5]: 14% | No. of deaths within 20 hrs. after drug administration, Deaths/survivals [5]: 1/7 | inhibition at 30 µM [6]: 100% | Max. hypotensive response after drug administration (-ΔmmHg) ([7]; listed as Compound (IA)): 15 ± 3 mmHg | Max. hypotensive response after drug administration (-ΔmmHg) ([7]; listed as compound (IA)): 15 mmHg | CO (percent of value prior to PAF) [1, 11]: 107 ± 4% | CoF (percent of value prior to PAF) [1, 11]: 109 ± 4% | DBP (percent of value prior to PAF) [1, 11]: 78 ± 5% | HR (percent of value prior to PAF) [1, 11]: 109 ± 2% | LVP (percent of value prior to PAF) [1, 11]: 92 ± 3% | MBP (percent of value prior to PAF) [1, 11]: 87 ± 7% | SBP (percent of value prior to PAF) [1, 11]: 90 ± 3% | max dp/dt (row head is a drawing; percent of value prior to PAF) [1, 11]: 94 ± 7% | CO (percent of value prior to PAF) [1, 12]: 99 ± 2% | CoF (percent of value prior to PAF) [1, 12]: 103 ± 3% | DBP (percent of value prior to PAF) [1, 12]: 99 ± 1% | HR (percent of value prior to PAF) [1, 12]: 105 ± 1% | LVP (percent of value prior to PAF) [1, 12]: 97 ± 3% | MBP (percent of value prior to PAF) [1, 12]: 99 ± 1% | SBP (percent of value prior to PAF) [1, 12]: 99 ± 1% | max dp/dt (row head is a drawing; percent of value prior to PAF) [1, 12]: 98 ± 2% | CO (percent of value prior to PAF) [1, 13]: 103 ± 5% | CoF (percent of value prior to PAF) [1, 13]: 97 ± 3% | DBP (percent of value prior to PAF) [1, 13]: 101 ± 2% | HR (percent of value prior to PAF) [1, 13]: 103 ± 3% | LVP (percent of value prior to PAF) [1, 13]: 100 ± 1% | MBP (percent of value prior to PAF) [1, 13]: 101 ± 2% | SBP (percent of value prior to PAF) [1, 13]: 102 ± 3% | max dp/dt (row head is a drawing; percent of value prior to PAF) [1, 13]: 102 ± 3% | suppression of the airway stenosis response by PAF ([3]; 0.3 mg/kg i.v.): 49% | suppression of the airway stenosis response by PAF ([3]; 1 mg/kg i.v.): 82%
